This note sets out measurements from PubChem BioAssay (NCI).

Some test systems named below: HOP-92 NSCLC; HL-60(TB) leukemia; KM12 colon; OVCAR-4 ovarian; SR leukemia; SF-539 CNS; CAKI-1 renal; 786-0 renal; LOX IMVI melanoma; SK-OV-3 ovarian.
Test in all cases: NCI-60 cell line screen, 48 h

Molecules are shown by their SMILES.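 Five compound concentrations were applied to cells in 96-well plates for 48 hours; endpoints were derived by simple linear interpolation of the resulting dose-response curve. At the GI50, growth is halved. At the TGI there is no net growth.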

On to `Nc1ccccc1NC(=O)c1ccc(CCCC(=O)Nc2ccc(C3CC3N)cc2)cc1` (stereo not given), for which the GI50 is 0.359 µM in the assay on HOP-92 NSCLC; 0.725 µM with HL-60(TB) leukemia; 3.63 µM in the assay with KM12 colon; 2.21 µM with OVCAR-4 ovarian; 0.738 µM in the assay with SR leukemia; 0.972 µM with SF-539 CNS. Further, the GI50 was 2.46 µM with CAKI-1 renal, 3.5 µM with 786-0 renal, 1.45 µM in the assay on LOX IMVI melanoma and 2.15 µM with SK-OV-3 ovarian. The TGI is 4.21 µM with HOP-92 NSCLC; 65.2 µM in the assay with HL-60(TB) leukemia; greater than 100 µM in the assay with KM12 colon; 26.4 µM in the assay with OVCAR-4 ovarian; greater than 100 µM in the assay on SR leukemia; 70.9 µM in the assay with SF-539 CNS. Further, the TGI worked out at 14.4 µM with CAKI-1 renal, 39.3 µM in the assay on 786-0 renal, 3.47 µM in the assay on LOX IMVI melanoma and 42.4 µM in the assay with SK-OV-3 ovarian.
Consider `CC(C)CC(=O)Nc1n[nH]c2c1CN(C(=O)C1CCN(C)CC1)C2(C)C`, for which the GI50 in the assay on HOP-92 NSCLC is 0.451 µM; in the assay on HL-60(TB) leukemia it was 0.513 µM; with KM12 colon, 0.72 µM; in the assay with OVCAR-4 ovarian, 2.54 µM; in the assay on SR leukemia it was 0.135 µM; with SF-539 CNS, 1.78 µM. The GI50 with CAKI-1 renal was 4.79 µM; with 786-0 renal it was 2.07 µM; with LOX IMVI melanoma it was 0.209 µM; in the assay on SK-OV-3 ovarian, 2.53 µM. Besides, the TGI is 7.54 µM in the assay with HOP-92 NSCLC; 4.97 µM in the assay with HL-60(TB) leukemia; greater than 10 µM with KM12 colon; greater than 10 µM with OVCAR-4 ovarian; 2.59 µM with SR leukemia; 8.99 µM in the assay on SF-539 CNS. In addition, the TGI was greater than 10 µM with CAKI-1 renal, greater than 10 µM in the assay with 786-0 renal, 8.63 µM in the assay on LOX IMVI melanoma and greater than 10 µM with SK-OV-3 ovarian.
On to `C#CCN(N=O)C(=O)NC(CCCNC(=O)OCc1ccccc1)C(=O)OCc1ccccc1` (stereo not given), for which the TGI is 96.3 µM with HOP-92 NSCLC; 42.9 µM with HL-60(TB) leukemia; greater than 100 µM in the assay on KM12 colon; greater than 100 µM in the assay with OVCAR-4 ovarian; 84.2 µM with SR leukemia; greater than 100 µM in the assay with SF-539 CNS. The TGI in the assay on CAKI-1 renal was 47.2 µM; in the assay with 786-0 renal, greater than 100 µM; in the assay with LOX IMVI melanoma it was greater than 100 µM; in the assay on SK-OV-3 ovarian, greater than 100 µM.
Take `N#CSc1c[nH]c2ccc(/C=C/C(=O)/C=C(/C=C/c3ccc4[nH]cc(SC#N)c4c3)OB(F)F)cc12`: the GI50 with HOP-92 NSCLC was 0.321 µM; in the assay on HL-60(TB) leukemia, 0.949 µM; with KM12 colon it was 1.02 µM; in the assay with OVCAR-4 ovarian, 0.344 µM; with SR leukemia, 0.128 µM; in the assay on SF-539 CNS it was 1.86 µM. The GI50 with CAKI-1 renal was 0.531 µM; in the assay with 786-0 renal it was 0.343 µM; with LOX IMVI melanoma it was 0.202 µM; in the assay on SK-OV-3 ovarian, 25.3 µM. In addition, the TGI with HOP-92 NSCLC worked out at 1.5 µM; in the assay with HL-60(TB) leukemia it was 4.18 µM; in the assay with KM12 colon, 4.82 µM; with OVCAR-4 ovarian, 3.11 µM; with SF-539 CNS, 6.17 µM; in the assay on CAKI-1 renal, 4.05 µM. For the same compound, the TGI with 786-0 renal was found to be 3.44 µM; in the assay with LOX IMVI melanoma it was 0.571 µM; in the assay on SK-OV-3 ovarian, 88.3 µM.
For `CC(=O)N1c2ccccc2NC2=C(C(=O)N(Cc3ccccc3)C2(C)C)C1c1ccco1` (stereo not given), the GI50 with HOP-92 NSCLC was 1.02 µM; in the assay on HL-60(TB) leukemia, 0.103 µM; in the assay with KM12 colon, 0.579 µM; with OVCAR-4 ovarian it was greater than 6.37 µM; with SR leukemia it was 0.463 µM; with SF-539 CNS it was 0.395 µM. Besides, the GI50 is 3.41 µM in the assay on CAKI-1 renal, 1.26 µM with 786-0 renal, 1.01 µM in the assay with LOX IMVI melanoma and 0.786 µM in the assay with SK-OV-3 ovarian. For the same compound, the TGI with HOP-92 NSCLC was greater than 25 µM; in the assay with HL-60(TB) leukemia, 0.651 µM; in the assay on KM12 colon it was greater than 16.4 µM; in the assay on OVCAR-4 ovarian, greater than 25 µM; in the assay with SR leukemia, greater than 25 µM; with SF-539 CNS, 1.17 µM. Moreover, the TGI in the assay with CAKI-1 renal was greater than 25 µM; in the assay on 786-0 renal, greater than 23.1 µM; in the assay with LOX IMVI melanoma it was greater than 25 µM; in the assay on SK-OV-3 ovarian, greater than 25 µM.
`O=C(O)c1ccc(S(=O)(=O)Nc2ccc3oc4c(c3c2)C(=O)CCC4)cc1`: the GI50 in the assay on HOP-92 NSCLC, with HL-60(TB) leukemia, in the assay on KM12 colon, in the assay with OVCAR-4 ovarian, with SR leukemia and in the assay with SF-539 CNS was greater than 100 µM throughout. Further, the GI50 in the assay on CAKI-1 renal, with 786-0 renal, in the assay on LOX IMVI melanoma and in the assay with SK-OV-3 ovarian was greater than 100 µM throughout. The TGI in the assay with HOP-92 NSCLC, in the assay with HL-60(TB) leukemia, in the assay on KM12 colon, in the assay with OVCAR-4 ovarian, in the assay on SR leukemia and in the assay on SF-539 CNS was greater than 100 µM throughout. The TGI with CAKI-1 renal, in the assay on 786-0 renal, in the assay on LOX IMVI melanoma and with SK-OV-3 ovarian was greater than 100 µM in each case.
Take `C[C@@H](CN1CC(=O)NC(=O)C1)N1CC(=O)NC(=O)C1`: the TGI was 908 µM in the assay with HOP-92 NSCLC; 1300 µM in the assay on HL-60(TB) leukemia; 2170 µM in the assay on KM12 colon; 1110 µM in the assay with OVCAR-4 ovarian; 1470 µM in the assay with SR leukemia; 1060 µM in the assay on SF-539 CNS. The TGI in the assay on CAKI-1 renal was determined as 772 µM; with 786-0 renal, 1120 µM; in the assay with LOX IMVI melanoma, 729 µM; with SK-OV-3 ovarian it was 1870 µM. For the same compound, the GI50 in the assay on CAKI-1 renal is 80.7 µM.
